What all share (type): in vivo
Series [1] relates to barnyard grass (Echinochloa crus-galli). Put plainly: Pre-emergence application, herbicidal effect on barnyard grass (Table 1). Also noted: key: 0: not damaged; 5: completely killed. The following applies: 20 days after application, score 0-5. An outline of the steps:
(§1)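 Steps: sow seeds individually in pots about 10 cm across; cover with soil; apply test compound as water-diluted wettable powder to the soil; grow in greenhouse; rate herbicidal effect at day 20 on a 0–5 scale (5 = completely killed).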

For series [2], the system named is large crabgrass (Digitaria sanguinalis). Put plainly: Pre-emergence application, herbicidal effect on large crabgrass (Table 1). Conditions: 20 days after application, score 0-5. Set-up: key: 0: not damaged; 5: completely killed. An outline of the steps: as §1
Another series has as its system radish. Put plainly: Pre-emergence application, herbicidal effect on radish (Table 1). Also noted: key: 0: not damaged; 5: completely killed. The following applies: 20 days after application, score 0-5. An outline of the steps:
as §1

Series [3] deals with redroot pigweed (Amaranthus retroflexus). Put plainly: Pre-emergence application, herbicidal effect on redroot pigweed (Table 1). Also noted: key: 0: not damaged; 5: completely killed. The following applies: 20 days after application, score 0-5. An outline of the steps: as §1
For series [4], the system named is common purslane (Portulaca oleracea). Put plainly: Pre-emergence application, herbicidal effect on common purslane (Table 1). Set-up: key: 0: not damaged; 5: completely killed. The following applies: 20 days after application, score 0-5. An outline of the steps:
as §1

Series [5] concerns common lambsquarter (Chenopodium album). Put plainly: Pre-emergence application, herbicidal effect on common lambsquarter (Table 1). Set-up: key: 0: not damaged; 5: completely killed. The following applies: 20 days after application, score 0-5. An outline of the steps: as §1
The test system of the next series is rice. Put plainly: Water application, phytotoxicity on rice (Table 2). Set-up: key: 0: no effect; 1: very slightly affected; 2: slightly affected; 3: moderately affected; 4: considerably affected; 5: completely killed. Conditions: 25 days, score 0-5. An outline of the steps:
(§2)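 Flooded paddy soil, 3-leaf rice transplants, sown barnyard grass, spontaneous broadleaf weeds; WP formulation, water-lodged soil application; 0–5 visual rating, day 25.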

The test system of series [6] is barnyard grass (Echinochloa crus-galli). Put plainly: Water application, herbicidal effect on barnyard grass (Table 2). Set-up: key: 0: not damaged; 5: completely killed. The following applies: 25 days, score 0-5. An outline of the steps:
as §2

The test system of series [7] is broad-leaved weeds, e.g., monochoria, false pimpernel and toothcup. Put plainly: Water application, herbicidal effect on broad-leaved weeds (Table 2). Set-up: key: 0: not damaged; 5: completely killed. Conditions: 25 days, score 0-5. An outline of the steps:
as §2

Series [8] relates to barnyard grass (Echinochloa crus-galli). Put plainly: Water application, herbicidal effect on barnyard grass (Table 2). Also noted: key: 0: no effect; 1: very slightly affected; 2: slightly affected; 3: moderately affected; 4: considerably affected; 5: completely killed. Conditions: 25 days, score 0-5. The source says:
Wagner pots of 14 cm. in diameter, which had been packed with 1.5 kg. of paddy field soil, were brought into the state of paddy fields. To the pots were transplanted rice seedlings at the 3-leave stage. Further, seeds of barnyard grass (Echinochloa crus-galli) were sowed in the pots and required amounts of test compounds were applied to the soil under water lodged condition. 25 days after application, the degrees of herbicidal activity and phytotoxity were investigated on above-mentioned plants which had been transplanted and sowed, and on broad-leaved weeds, e.g., monochoria (Monochoria viaginalis Presl.), false pimpernel (Linderna pyxidaria) and toothcup (Rotala indica Koehue), which had been spontaneously germinated. The test compounds were used in the form of wettable powder. The herbicidal effects and the phytotoxity were evaluated as follows by the numerals ranging from 0 to 5.

Series [9] deals with broad-leaved weeds, e.g., monochoria, false pimpernel and toothcup. Put plainly: Water application, herbicidal effect on broad-leaved weeds (Table 2). Set-up: key: 0: no effect; 1: very slightly affected; 2: slightly affected; 3: moderately affected; 4: considerably affected; 5: completely killed. The following applies: 25 days, score 0-5. An outline of the steps: as §2

Structures are written as SMILES.

The results in this text go back to US4015974A, “Amido phosphorothiolates” (priority 1972, dated 1977).

Regarding `CCOP(=O)(SCC(=O)N1CCCCC1C)SCC(C)c1ccccc1` (stereo not drawn) [Compound 65], the “Herbicidal effect, barnyard grass” value in series [1] (10 g./a.), in [1] (20 g./a.) and in series [1] (40 g./a.) was 5 each time. For the same compound, the “Herbicidal effect, large crabgrass” value in [2] (10 g./a.), in series [2] (20 g./a.) and in series [2] (40 g./a.) was 5 throughout. In addition, the “Herbicidal effect, radish” value with radish (10 g./a.), in the series with radish (20 g./a.) and in the series with radish (40 g./a.) was 0 in each case. The “Herbicidal effect, redroot pigweed” value stood at 4 in series [3] (10 g./a.), 4 in series [3] (20 g./a.) and 5 in series [3] (40 g./a.). For the same compound, the “Herbicidal effect, common purslane” value is 4 in series [4] (10 g./a.), 4 in [4] (20 g./a.) and 5 in series [4] (40 g./a.). Besides, the “Herbicidal effect, common lambsquarter” value in [5] (10 g./a.) came out at 4; in series [5] (20 g./a.) it was 4; in series [5] (40 g./a.) it was 5. The Phytotoxicity on rice in the series with rice (10 g/a), with rice (20 g/a) and with rice (40 g/a) was 0 in each case. Also, the figures for the “Herbicidal effects, barnyard grass” value in [6] (20 g/a), in series [6] (40 g/a) and in series [8] (10 g/a) were 5, 5 and 4, respectively. For the same compound, the “Herbicidal effects, broad-leaved weeds” value in [7] (10 g/a), in [7] (20 g/a) and in [7] (40 g/a) was 5 in each case.
As to `CCOP(=O)(SCCCC(C)C)SCC(=O)N1CCCCC1CC` (stereo not drawn) [Compound 80], the “Herbicidal effect, barnyard grass” value in series [1] (10 g./a.) is recorded as 4; in series [1] (20 g./a.), 5; in series [1] (40 g./a.), 5. The “Herbicidal effect, large crabgrass” value in series [2] (10 g./a.), in series [2] (20 g./a.) and in [2] (40 g./a.) was 5 each time. The “Herbicidal effect, radish” value in the series with radish (10 g./a.), in the series with radish (20 g./a.) and in the series with radish (40 g./a.) was 0 throughout. Also, the results for the “Herbicidal effect, redroot pigweed” value in series [3] (10 g./a.), in [3] (20 g./a.) and in series [3] (40 g./a.) were 3, 4 and 5, respectively. In addition, the “Herbicidal effect, common purslane” value in [4] (10 g./a.) is 3; in series [4] (20 g./a.) it was 4; in series [4] (40 g./a.), 5. Moreover, the results for the “Herbicidal effect, common lambsquarter” value in series [5] (10 g./a.), in series [5] (20 g./a.) and in series [5] (40 g./a.) were 3, 4 and 5, respectively. The values for the Phytotoxicity on rice in the series with rice (10 g/a), in the series on rice (20 g/a) and in the series on rice (40 g/a) were 0, 0 and 2, respectively. Besides, the results for the “Herbicidal effects, barnyard grass” value in [6] (20 g/a), in [6] (40 g/a) and in series [8] (10 g/a) were 5, 5 and 4, respectively. Further, the “Herbicidal effects, broad-leaved weeds” value in series [7] (10 g/a), in series [7] (20 g/a) and in series [7] (40 g/a) was 5 each time.
As for `C=CCSP(=O)(OCCC)SCC(=O)N1CCCCC1CC` (stereo not drawn) [Compound 91], the “Herbicidal effect, barnyard grass” value in series [1] (10 g./a.) is given as 4; in [1] (20 g./a.), 5; in series [1] (40 g./a.), 5. For the same compound, the “Herbicidal effect, large crabgrass” value in series [2] (10 g./a.), in series [2] (20 g./a.) and in series [2] (40 g./a.) was 5 throughout. For the same compound, the “Herbicidal effect, radish” value in the series with radish (10 g./a.), with radish (20 g./a.) and with radish (40 g./a.) was 0 in each case. Moreover, the “Herbicidal effect, redroot pigweed” value in series [3] (10 g./a.) was 3; in series [3] (20 g./a.) it was 3; in [3] (40 g./a.), 4. The “Herbicidal effect, common purslane” value in [4] (10 g./a.) is listed as 3; in series [4] (20 g./a.), 4; in series [4] (40 g./a.), 4. In addition, the “Herbicidal effect, common lambsquarter” value is 3 in [5] (10 g./a.), 3 in [5] (20 g./a.) and 4 in series [5] (40 g./a.). Also, the Phytotoxicity on rice in the series on rice (10 g/a), in the series with rice (20 g/a) and with rice (40 g/a) was 0 throughout. Also, the entries for the “Herbicidal effects, barnyard grass” value in [6] (20 g/a), in [6] (40 g/a) and in series [8] (10 g/a) were 5, 5 and 4, respectively. In addition, the “Herbicidal effects, broad-leaved weeds” value in [7] (10 g/a), in [7] (20 g/a) and in [7] (40 g/a) was 5 each time.
For `Oc1c(Cl)c(Cl)c(Cl)c(Cl)c1Cl` [PCP, reference compound], the “Herbicidal effect, barnyard grass” value in series [1] (50 g./a.) was found to be 2; in [1] (100 g./a.), 3. The results for the “Herbicidal effect, large crabgrass” value in [2] (50 g./a.) and in series [2] (100 g./a.) were 2 and 4, respectively. Besides, the “Herbicidal effect, radish” value with radish (50 g./a.) is listed as 1; in the series with radish (100 g./a.), 4. The “Herbicidal effect, redroot pigweed” value is 2 in [3] (50 g./a.) and 4 in series [3] (100 g./a.). In addition, the “Herbicidal effect, common purslane” value in [4] (50 g./a.) was determined as 2; in series [4] (100 g./a.), 4. The “Herbicidal effect, common lambsquarter” value in [5] (50 g./a.) amounted to 2; in series [5] (100 g./a.), 4. For the same compound, the Phytotoxicity on rice in the series on rice (50 g/a) is on record as 2; with rice (100 g/a), 3. Further, the “Herbicidal effects, barnyard grass” value in series [6] (100 g/a) turned out to be 5; in series [8] (50 g/a), 4. Also, the “Herbicidal effects, broad-leaved weeds” value in series [7] (50 g/a) and in series [7] (100 g/a) was 5 in each case.
For the compound `COP(=S)(NC(C)C)Oc1ccc(Cl)cc1Cl` (stereo not drawn) [Zytron, reference compound], the “Herbicidal effect, barnyard grass” value in [1] (20 g./a.) is listed as 3; in [1] (40 g./a.), 4. The “Herbicidal effect, large crabgrass” value in [2] (20 g./a.) is recorded as 1; in series [2] (40 g./a.), 3. The “Herbicidal effect, radish” value in the series on radish (20 g./a.) and in the series on radish (40 g./a.) was 0 in each case. Also, the figures for the “Herbicidal effect, redroot pigweed” value in [3] (20 g./a.) and in [3] (40 g./a.) were 0 and 1, respectively. Besides, the “Herbicidal effect, common purslane” value in series [4] (20 g./a.) came out at 1; in series [4] (40 g./a.) it was 2. Further, the entries for the “Herbicidal effect, common lambsquarter” value in series [5] (20 g./a.) and in series [5] (40 g./a.) were 0 and 2, respectively. Besides, the Phytotoxicity on rice with rice (20 g/a) and with rice (40 g/a) was 0 each time. The “Herbicidal effects, barnyard grass” value is on record as 1 in series [8] (20 g/a) and 3 in [8] (40 g/a). Also, the “Herbicidal effects, broad-leaved weeds” value in series [9] (20 g/a) is reported as 2; in [9] (40 g/a), 3.
